Experiments:
bermudagrass = test: Test C pre-/postemergence herbicide test; format: in vivo, Cynodon dactylon; conditions: for Bermudagrass plant response rating: Preemergence, 500 g ai/ha
Method in brief: (§1)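 Preemergence: seeds planted and treated with compound in non-phytotoxic solvent with surfactant; postemergence: plants at 2 to 18 cm (1- to 4-leaf stage) sprayed likewise. Kept in greenhouse 12 to 14 days, then visually rated against controls, 0 (no effect) to 100 (complete control).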

Surinam grass = test: Test C pre-/postemergence herbicide test; format: in vivo, Urochloa decumbens; conditions: for Surinam Grass plant response rating: Preemergence, 500 g ai/ha, scale 0 to 100, 0 no effect, 100 complete control
Method in brief: as §1

corn = test: Test C pre-/postemergence herbicide test; format: in vivo, Zea mays; conditions: for Plant response rating, Corn / Plant response rating (0 = no effect, 100 = complete control), Corn: preemergence; for Corn plant response rating: Preemergence, 500 g ai/ha, scale 0 to 100, 0 no effect, 100 complete control
Method in brief: as §1

goosegrass = test: Test C pre-/postemergence herbicide test; format: in vivo, Eleusine indica; conditions: for Plant response rating, Goosegrass / Plant response rating (0 = no effect, 100 = complete control), Goosegrass: preemergence; for Goosegrass plant response rating: Preemergence, 500 g ai/ha, scale 0 to 100, 0 no effect, 100 complete control
Method in brief: as §1

johnsongrass = test: Test C pre-/postemergence herbicide test; format: in vivo, Sorghum halepense; conditions: for Plant response rating, Johnsongrass / Plant response rating (0 = no effect, 100 = complete control), Johnsongrass: preemergence; for Johnsongrass plant response rating: Preemergence, 500 g ai/ha, scale 0 to 100, 0 no effect, 100 complete control
Method in brief: as §1

morningglory = test: Test C pre-/postemergence herbicide test; format: in vivo, Ipomoea coccinea; design: key to Plant response rating, Morningglory: 0 = no effect, 100 = complete control; conditions: for Plant response rating, Morningglory / Plant response rating (0 = no effect, 100 = complete control), Morningglory: preemergence; for Morningglory plant response rating: Preemergence, 500 g ai/ha, scale 0 to 100, 0 no effect, 100 complete control
Method in brief: as §1

common ragweed = test: Test C pre-/postemergence herbicide test; format: in vivo, Ambrosia elatior; design: key to Plant response rating, Ragweed: 0 = no effect, 100 = complete control; conditions: for Plant response rating, Ragweed / Plant response rating (0 = no effect, 100 = complete control), Ragweed: preemergence; for Ragweed plant response rating: Preemergence, 500 g ai/ha, scale 0 to 100, 0 no effect, 100 complete control
Method in brief: as §1

velvetleaf = test: Test C pre-/postemergence herbicide test; format: in vivo, Abutilon theophrasti; conditions: for Plant response rating, Velvetleaf: preemergence; for Velvetleaf plant response rating: Preemergence, 500 g ai/ha, scale 0 to 100, 0 no effect, 100 complete control
Method in brief: as §1

ducksalad = test: Test C flooded paddy test; format: in vivo, Heteranthera limosa; conditions: for Plant response rating, Ducksalad: 500 g ai/ha, visual rating after 12 to 14 days
barnyardgrass = test: Test C flooded paddy test; format: in vivo, Echinochloa crus-galli; conditions: for Plant response rating, Barnyardgrass: 500 g ai/ha, visual rating after 12 to 14 days
Method in brief: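 Postemergence sprays applied to plants 2 to 18 cm tall (1- to 4-leaf stage); paddy species grown to 2-leaf stage under flooding. After 12 to 14 days in greenhouse, visual rating versus untreated controls on 0–100 scale (0 no effect, 100 complete control).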

[1] = 31 g ai/ha, preemergence, scale 0 to 100
[2] = 125 g ai/ha, scale 0 (no effect) to 100 (complete control), visual, 12 to 14 days, preemergence
[3] = 125 g ai/ha, scale 0 (no effect) to 100 (complete control), visual, 12 to 14 days
[4] = 62 g ai/ha, scale 0 to 100 (0 no effect, 100 complete control)
[5] = 125 g ai/ha, scale of 0 to 100, 0 is no effect, 100 is complete control
[6] = 250 g ai/ha, scale of 0 to 100, 0 is no effect, 100 is complete control
[7] = scale 0 to 100 (0 no effect, 100 complete control)
[8] = 250 g ai/ha, scale 0 to 100 (0 no effect, 100 complete control), visual, 12 to 14 days, preemergence
[9] = scale 0 to 100, 0 no effect, 100 complete control
[10] = 250 g ai/ha, scale 0 to 100 (0 no effect, 100 complete control), visual, 12 to 14 days
[11] = 125 g ai/ha, scale 0 to 100 (0 no effect, 100 complete control)

Compound	Plant response rating (0 = no effect, 100 = complete control), Bermudagrass (bermudagrass; 62 g ai/ha, preemergence)	Plant response rating, Bermudagrass (bermudagrass; [2])	Plant response rating, Surinam Grass (Surinam grass; [2])	Plant response rating (0 = no effect, 100 = complete control), Corn (corn; 62 g ai/ha)	Plant response rating, Corn (corn; [3])	Plant response rating (0 = no effect, 100 = complete control), Goosegrass (goosegrass; 62 g ai/ha)	Plant response rating, Goosegrass (goosegrass; [3])	Plant response rating (0 = no effect, 100 = complete control), Johnsongrass (johnsongrass; 62 g ai/ha)	Plant response rating, Johnsongrass (johnsongrass; [3])	Plant response rating (0 = no effect, 100 = complete control), Morningglory (morningglory; 62 g ai/ha)	Plant response rating, Morningglory (morningglory; [3])	Plant response rating, Ragweed (common ragweed; [3])	Plant response rating, Velvetleaf (velvetleaf; [3])	Ducksalad plant response rating (ducksalad; [4])	Ducksalad plant response rating (ducksalad; [6])	Plant response rating, Ducksalad (ducksalad; [7])	Barnyardgrass plant response rating (barnyardgrass; [4])	Barnyardgrass plant response rating (barnyardgrass; [5])	Barnyardgrass plant response rating (barnyardgrass; [6])	Plant response rating, Barnyardgrass (barnyardgrass; [7])	also measured
CCC(=NO)c1cccc(NC(=O)c2cc(C(C)(C)C)nn2C)c1 [Compound 118]	90	100	20	0	10	20	80	40	100	20	30	10	40	0	50	50	0	20	20	50	Plant response rating, Bermudagrass (bermudagrass; 16 g ai/ha, scale 0 to 100, 0 no effect, 100 complete control, last section of Table C (species set of preemergence test)): 0; Plant response rating, Bermudagrass (bermudagrass; [1]): 30; Plant response rating, Surinam Grass (Surinam grass; [1]): 20; Plant response rating, Corn (corn; 31 g ai/ha, scale 0 to 100): 0; Plant response rating, Goosegrass (goosegrass; 31 g ai/ha, scale 0 to 100): 20; Plant response rating, Johnsongrass (johnsongrass; 31 g ai/ha, scale 0 to 100): 30; Plant response rating, Morningglory (morningglory; 31 g ai/ha, scale 0 to 100): 0; Plant response rating, Ragweed (common ragweed; 31 g ai/ha, scale 0 to 100): 0; Plant response rating (0 = no effect, 100 = complete control), Ragweed (common ragweed; 62 g ai/ha): 0; Plant response rating, Velvetleaf (velvetleaf; 31 g ai/ha, scale 0 to 100): 0; Ducksalad plant response rating (ducksalad; [5]): 50
CCn1nc(C(C)(C)C)cc1C(=O)Nc1cc(C#N)ccc1F [Compound 140]	0	0	0	0	0	0	0	0	45	0	0	0	0	0	0	20	0	0	0	15	Plant response rating, Bermudagrass (bermudagrass; [8]): 60; Bermudagrass plant response rating (bermudagrass; [9]): 85; Plant response rating (0 = no effect, 100 = complete control), Surinam Grass (Surinam grass; 62 g ai/ha, preemergence): 0; Surinam Grass plant response rating (Surinam grass): 70; Plant response rating, Corn (corn; [10]): 0; Corn plant response rating (corn): 0; Goosegrass plant response rating (goosegrass): 75; Johnsongrass plant response rating (johnsongrass): 75; Morningglory plant response rating (morningglory): 0; Plant response rating (0 = no effect, 100 = complete control), Ragweed (common ragweed; 62 g ai/ha): 0; Ragweed plant response rating (common ragweed): 95; Velvetleaf plant response rating (velvetleaf): 20; Ducksalad plant response rating (ducksalad; [11]): 0
CCNC(=O)c1ccnc(NC(=O)c2cc(C(C)(C)C)nn2CC)c1 [Compound 152]	–	90	60	–	45	–	100	–	100	–	80	85	100	85	85	85	40	75	75	85	Plant response rating, Bermudagrass (bermudagrass; 62 g ai/ha, preemergence, scale 0 to 100, 0 no effect, 100 complete control): 85; Plant response rating, Bermudagrass (bermudagrass; [8]): 100; Bermudagrass plant response rating (bermudagrass; [9]): 100; Plant response rating, Surinam Grass (Surinam grass; 62 g ai/ha, preemergence, scale 0 to 100): 40; Surinam Grass plant response rating (Surinam grass): 100; Plant response rating, Corn (corn; 62 g ai/ha, scale 0 to 100): 40; Plant response rating, Corn (corn; [10]): 50; Corn plant response rating (corn): 70; Plant response rating, Goosegrass (goosegrass; 62 g ai/ha, scale 0 to 100): 80; Goosegrass plant response rating (goosegrass): 100; Plant response rating, Johnsongrass (johnsongrass; 62 g ai/ha, scale 0 to 100): 80; Johnsongrass plant response rating (johnsongrass): 100; Plant response rating, Morningglory (morningglory; 62 g ai/ha, scale 0 to 100): 20; Morningglory plant response rating (morningglory): 100; Plant response rating, Ragweed (common ragweed; 62 g ai/ha, scale 0 to 100): 85; Ragweed plant response rating (common ragweed): 100; Plant response rating, Velvetleaf (velvetleaf; 62 g ai/ha, scale 0 to 100): 0; Velvetleaf plant response rating (velvetleaf): 100; Ducksalad plant response rating (ducksalad; [11]): 85

— patent US20060069132A1, “Azolecarboxamide herbicides” (priority 2004, published 2006)
